From patent US20220169654A1, “New Organic Compounds” (Servier Pharmaceuticals LLC, priority 2020, published 2022)

Key:
MAT2A homodimer = molecular target: T1, MAT2A homodimer (Homo sapiens, UniProt P31153); test: MAT2A inhibition (biochemical, liberated phosphate, PiColorLock Gold); conditions: recombinant MAT2A homodimer; IC50 bin with Max Inh.; read-out: Enzyme Inhibition Bin
T1 construct: inferred from Ni sepharose purification with imidazole elution; made in house; host or cells: Sf9 insect cells, baculovirus (Bac to Bac, pFASTBAC1)
T1 sequence (P31153 whole entry): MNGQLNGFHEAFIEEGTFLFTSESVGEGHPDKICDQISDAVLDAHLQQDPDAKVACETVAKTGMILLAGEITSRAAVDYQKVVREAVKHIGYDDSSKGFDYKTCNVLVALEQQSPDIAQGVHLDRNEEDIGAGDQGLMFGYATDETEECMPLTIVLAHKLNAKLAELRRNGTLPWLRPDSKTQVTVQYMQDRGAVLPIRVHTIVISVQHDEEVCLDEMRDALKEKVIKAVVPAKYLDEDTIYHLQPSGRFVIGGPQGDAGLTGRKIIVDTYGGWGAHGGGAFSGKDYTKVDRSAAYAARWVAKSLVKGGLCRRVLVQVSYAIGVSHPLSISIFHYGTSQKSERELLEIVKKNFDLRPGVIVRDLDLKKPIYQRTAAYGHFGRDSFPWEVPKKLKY
Outline: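 Enzyme at 4 μg/mL and compound equilibrated 60 min at 25 °C, then 60 min reaction after adding substrate mix (500 μM ATP, 400 μM methionine). Released phosphate quantified by colorimetric kit against a phosphate standard curve to give IC50. Secondary format used 1 μg/mL enzyme with 5 h incubation.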

[1] = tested on: SAM in HCT116 human colon carcinoma cell line with MTAP gene deleted (MTAP −/−); test: Cellular assay of target engagement (SAM), LC-MS/MS, 72 hrs; format: cell-based; conditions: HCT-116, IC50 bin with Max Inh., read-out: Cell 72 h SAM Inhibition (MTAP −/−)
Outline: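 SAM levels were quantified by LC-MS/MS (m/z 399.2→250.1, d3-SAM internal standard) from cold methanol/acetic acid extracts, yielding IC50. Compound was applied as a 10-point 3-fold series for 72 hrs to MTAP −/− HCT116 cells seeded 24 hours before.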

HCT116 MTAP−/− = test: Inhibition of cellular proliferation, 4 days, Cell Titer Glo, HCT116 MTAP−/−; format: cell-based; conditions: Homo sapiens, HCT-116, 96 h, IC50 bin with Max Inh., read-out: 4 Day Relative Growth Inhibition (MTAP −/−)
Outline: (§1)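 IC50 derived from blank-corrected ATP luminescence (Cell Titer Glo) expressed relative to within-plate 0.2% DMSO wells. Compound, as a 10-point 3-fold series, was added 24 h after seeding the MTAP+/+ or MTAP−/− HCT116 cells and incubated 4 days at 37° C./5% CO2.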

HCT116 MTAP+/+ = test: Inhibition of cellular proliferation, 4 days, Cell Titer Glo, HCT116 MTAP+/+; format: cell-based; conditions: Homo sapiens, HCT-116, 96 h, IC50 bin with Max Inh., read-out: 4 Day Relative Growth Inhibition (MTAP +/+)
Outline: as §1

Row | IC50 (MAT2A homodimer) [nM] | IC50 [1] [nM] | IC50 (HCT116 MTAP−/−) [nM] | IC50 (HCT116 MTAP+/+) [nM] | SMILES
1 | < 100 | < 100 | 100 to 1000 | > 1000 | Cc1ccc(-c2c(=O)n(-c3ccc4nn(C)cc4c3)nc3[nH]c(=O)n(CC4CC4)c23)cn1 [Example 207, 5-(cyclopropylmethyl)-2-(2-methyl-2H-indazol-5-yl)-4-(6-methylpyridin-3-yl)-2,7-dihydro-3H-imidazo[4,5-c]pyridazine-3,6(5H)-dione]
2 | < 100 | < 100 | < 100 | > 1000 | Cc1nn(CC2CC2)c2c(-c3ccc(C4CC4)nc3)c(=O)n(-c3ccc4nn(C)cc4c3)nc12 [Example 211, 1-(cyclopropylmethyl)-7-(6-cyclopropylpyridin-3-yl)-3-methyl-5-(2-methyl-2H-indazol-5-yl)-1H,5H,6H-pyrazolo[4,3-c]pyridazin-6-one]
3 | < 100 | < 100 | < 100 | < 100 | Cc1nn(CC2CC2)c2c(-c3ccc(OC(F)F)cc3)c(=O)n(-c3ccc4nn(C)cc4c3)nc12 [Example 212, 1-(cyclopropylmethyl)-7-(4-(difluoromethoxy)phenyl)-3-methyl-5-(2-methyl-2H-indazol-5-yl)-1,5-dihydro-6H-pyrazolo[4,3-c]pyridazin-6-one]
4 | < 100 | < 100 | < 100 | > 1000 | Cc1nn(CC2CC2)c2c(-c3ccc(C4CC4)cc3)c(=O)n(-c3ccc4nn(C)cc4c3)nc12 [Example 213, 1-(cyclopropylmethyl)-7-(4-cyclopropylphenyl)-3-methyl-5-(2-methyl-2H-indazol-5-yl)-1,5-dihydro-6H-pyrazolo[4,3-c]pyridazin-6-one]
5 | < 100 | < 100 | < 100 | 100 to 1000 | COc1ccc(-c2c(=O)n(-c3ccc4nn(C)cc4c3)nc3c(C)nn(CC4CC4)c23)cc1 [Example 214, 1-(cyclopropylmethyl)-7-(4-methoxyphenyl)-3-methyl-5-(2-methyl-2H-indazol-5-yl)-1,5-dihydro-6H-pyrazolo[4,3-c]pyridazin-6-one]
6 | < 100 | < 100 | < 100 | 100 to 1000 | Cc1nn(CC2CC2)c2c(-c3ccc(Cl)cc3)c(=O)n(-c3ccc4nn(C)cc4c3)nc12 [Example 215, 7-(4-chlorophenyl)-1-(cyclopropylmethyl)-3-methyl-5-(2-methyl-2H-indazol-5-yl)-1,5-dihydro-6H-pyrazolo[4,3-c]pyridazin-6-one]
7 | < 100 | < 100 | < 100 | 100 to 1000 | [2H]C([2H])([2H])Oc1ccc(-c2c(=O)n(-c3ccc4nn(C)cc4c3)nc3c(C)nn(CC4CC4)c23)cc1 [Example 216, 1-(cyclopropylmethyl)-7-(4-(methoxy-d3)phenyl)-3-methyl-5-(2-methyl-2H-indazol-5-yl)-1,5-dihydro-6H-pyrazolo[4,3-c]pyridazin-6-one]
8 | < 100 | < 100 | < 100 | > 1000 | Cc1ccc(-c2c(=O)n(-c3ccc4nn(C)cc4c3)nc3c(C)nn(CC4CC4)c23)cn1 [Example 217, 1-(cyclopropylmethyl)-3-methyl-5-(2-methyl-2H-indazol-5-yl)-7-(6-methylpyridin-3-yl)-1,5-dihydro-6H-pyrazolo[4,3-c]pyridazin-6-one]
9 | < 100 | 100 to 1000 | 100 to 1000 | > 1000 | Cc1ccc(-c2c(=O)n(-c3ccc4nn(C)cc4c3)nc3cnn(CC4CC4)c23)cn1 [Example 222, 1-(cyclopropylmethyl)-5-(2-methyl-2H-indazol-5-yl)-7-(6-methylpyridin-3-yl)-1,5-dihydro-6H-pyrazolo[4,3-c]pyridazin-6-one]

More lines, now with the values behind:

Row | SMILES | IC50 (MAT2A homodimer) [nM] | IC50 [1] [nM] | IC50 (HCT116 MTAP−/−) [nM] | IC50 (HCT116 MTAP+/+) [nM]
10 | [2H]C([2H])([2H])Oc1ccc(-c2c(=O)n(-c3ccc4nn(C)cc4c3)nc3[nH]c(=O)n(CC4CC4)c23)cc1 [Example 206, 5-(cyclopropylmethyl)-4-(4-(methoxy-d3)phenyl)-2-(2-methyl-2H-indazol-5-yl)-2,7-dihydro-3H-imidazo[4,5-c]pyridazine-3,6(5H)-dione] | < 100 | < 100 | 100 to 1000 | > 1000
11 | Cn1cc2cc(-n3nc4nnn(CC5CC5)c4c(-c4ccc(OC(F)F)cc4)c3=O)ccc2n1 [Example 208, 1-(cyclopropylmethyl)-7-(4-(difluoromethoxy)phenyl)-5-(2-methyl-2H-indazol-5-yl)-1,5-dihydro-6H-[1,2,3]triazolo[4,5-c]pyridazin-6-one] | < 100 | < 100 | 100 to 1000 | 100 to 1000
12 | Cn1cc2cc(-n3nc4nnn(CC5CC5)c4c(-c4ccc(C5CC5)cc4)c3=O)ccc2n1 [Example 209, 1-(cyclopropylmethyl)-7-(4-cyclopropylphenyl)-5-(2-methyl-2H-indazol-5-yl)-1,5-dihydro-6H-[1,2,3]triazolo[4,5-c]pyridazin-6-one] | < 100 | 100 to 1000 | 100 to 1000 | > 1000
13 | Cn1cc2cc(-n3nc4nnn(CC5CC5)c4c(-c4ccc(C5CC5)nc4)c3=O)ccc2n1 [Example 210, 1-(cyclopropylmethyl)-7-(6-cyclopropylpyridin-3-yl)-5-(2-methyl-2H-indazol-5-yl)-1,5-dihydro-6H-[1,2,3]triazolo[4,5-c]pyridazin-6-one] | 100 to 1000 | > 1000 | 100 to 1000 | > 1000
14 | Cn1cc2cc(-n3nc4cnn(CC5CC5)c4c(-c4ccc(OC(F)F)cc4)c3=O)ccc2n1 [Example 218, 1-(cyclopropylmethyl)-7-(4-(difluoromethoxy)phenyl)-5-(2-methyl-2H-indazol-5-yl)-1,5-dihydro-6H-pyrazolo[4,3-c]pyridazin-6-one] | < 100 | < 100 | < 100 | 100 to 1000
15 | Cn1cc2cc(-n3nc4cnn(CC5CC5)c4c(-c4ccc(C5CC5)nc4)c3=O)ccc2n1 [Example 219, 1-(cyclopropylmethyl)-7-(6-cyclopropylpyridin-3-yl)-5-(2-methyl-2H-indazol-5-yl)-1,5-dihydro-6H-pyrazolo[4,3-c]pyridazin-6-one] | < 100 | 100 to 1000 | 100 to 1000 | 100 to 1000
16 | [2H]C([2H])([2H])Oc1ccc(-c2c(=O)n(-c3ccc4nn(C)cc4c3)nc3cnn(CC4CC4)c23)cc1 [Example 220, 1-(cyclopropylmethyl)-7-(4-(methoxy-d3)phenyl)-5-(2-methyl-2H-indazol-5-yl)-1,5-dihydro-6H-pyrazolo[4,3-c]pyridazin-6-one] | < 100 | < 100 | < 100 | 100 to 1000
17 | Cn1cc2cc(-n3nc4cnn(CC5CC5)c4c(-c4ccc(Cl)cc4)c3=O)ccc2n1 [Example 221, 7-(4-chlorophenyl)-1-(cyclopropylmethyl)-5-(2-methyl-2H-indazol-5-yl)-1,5-dihydro-6H-pyrazolo[4,3-c]pyridazin-6-one] | < 100 | < 100 | < 100 | 100 to 1000
18 | Cn1cc(-n2nc3ccn(CC4CC4)c3c(-c3ccc(OC(F)F)cc3)c2=O)ccc1=O [Example 223, 5-(cyclopropylmethyl)-4-(4-(difluoromethoxy)phenyl)-2-(1-methyl-6-oxo-1,6-dihydropyridin-3-yl)-2,5-dihydro-3H-pyrrolo[3,2-c]pyridazin-3-one] | < 100 | < 100 | 100 to 1000 | 100 to 1000
19 | O=c1c(-c2ccc(OC(F)F)cc2)c2c(ccn2CC2CC2)nn1-c1ccc2ncsc2c1 [Example 224, 2-(benzo[d]thiazol-6-yl)-5-(cyclopropylmethyl)-4-(4-(difluoromethoxy)phenyl)-2,5-dihydro-3H-pyrrolo[3,2-c]pyridazin-3-one] | < 100 | < 100 | < 100 | 100 to 1000
20 | O=c1c(-c2ccc(OC(F)F)cc2)c2c(ccn2CC2CC2)nn1-c1ccc2ncccc2c1 [Example 225, 5-(cyclopropylmethyl)-4-(4-(difluoromethoxy)phenyl)-2-(quinolin-6-yl)-2,5-dihydro-3H-pyrrolo[3,2-c]pyridazin-3-one] | < 100 | < 100 | < 100 | 100 to 1000
21 | O=c1c(-c2ccc(OC(F)F)cc2)c2c(ccn2CC2CC2)nn1-c1ccncc1 [Example 226, 5-(cyclopropylmethyl)-4-(4-(difluoromethoxy)phenyl)-2-(pyridin-4-yl)-2,5-dihydro-3H-pyrrolo[3,2-c]pyridazin-3-one] | < 100 | < 100 | < 100 | 100 to 1000
22 | CN1CCOc2ccc(-n3nc4ccn(CC5CC5)c4c(-c4ccc(OC(F)F)cc4)c3=O)cc21 [Example 227, 5-(cyclopropylmethyl)-4-(4-(difluoromethoxy)phenyl)-2-(4-methyl-3,4-dihydro-2H-benzo[b][1,4]oxazin-6-yl)-2,5-dihydro-3H-pyrrolo[3,2-c]pyridazin-3-one] | < 100 | < 100 | < 100 | 100 to 1000
